In patent publication US20230277669A1, “USES OF UROLITHINS” (Amazentis SA, priority 2022, published 2023):

How the values were obtained:
APTK tumors = test: Oral UA in Pink1-/- mice with s.c. APTK tumors; type: in vivo
Method: (§1) (FIG. 4A) Scheme of CD3+ T-cell activation and analysis for various timepoints in order to investigate mitophagy induction in vitro. (FIG. 4B) Analysis of mitochondrial membrane potential within CD8+ T cells, with TMRM^lo representing cells with low mitochondrial membrane potential. Analysis was performed six hours after stimulation with aCD/aCD28 stimulation beads at the presence of the indicated treatments. N=4 per group, *p < 0.05 by Mann Whitney U test. One of two independent experiments are shown. (FIG. 4C) Representative flow histogram and quantification of lysosome formation in CD8+ cells six hours after in vitro stimulation. MFI shown relative to DMSO controls, n=4. Data are normalised mean ± SD, statistical analysis by two-sided t-test. One out of two independent experiments are shown. (FIG. 4D) Mitotracker Red staining of in vitro stimulated CD8+ cells after 24 hours of Urolithin A (UA25 n=6; UA50 n=6) or vehicle control treatment (DMSO: n=4). A representative flow histogram depicting identification of Mitotracker^hi cells is shown. Data are mean ± SD, statistical analysis was performed by two-sided t-test (*p < 0.05; ***p <0.001; ****p < 0.0001). Experiment was repeated twice. (FIG. 4E) Subset-specific identification of Mitotracker red accumulation after 24 hours of in vitro stimulation either with vehicle control (DMSO) or 50 µM Urolithin A (n=5). Subsets were identified was depicted in the FIGS. 7-9. Data are mean ± SD, statistical analysis by two-sided t-test (* p<0.05, *** p<0.001 and **** p<0.0001). (FIG. 4F) qPCR analysis of various autophagy/mitophagy associated genes of in vitro activated CD3+ cells, 24 h after activation (n=3). Data are ± SEM, statistical analysis was performed by two-sided t-test (*p < 0.05,**p < 0.01). Overall p value is given for the comparison over the entire panel of genes after two-way ANOVA test. (FIG. 4G) Western blot of Parkin protein expression in UA or DMSO (n=3) treated cells after 24 h. Cells were stimulated at the presence of plate-bound aCD3/aCD28 antibodies. […] (FIG. 4H) CD8+ cells from Pink1^-/- mice display deficient mitophagy upon UA treatment in vitro: Lysosome formation in CD8+ of Pink1^-/- mice as assessed by Lysotracker staining 6h post stimulation at the presence of UA or DMSO (n=4). Data are mean ± SD, one out of two independent experiments are shown. (FIG. 4I) CD8+ cells from Pink1^-/- mice display deficient mitophagy upon UA treatment in vitro: Mitotracker red staining of Pink1^-/- CD8+ stimulated in vitro for 48 h, either in the presence of UA or DMSO (n=4). Percentage of Mitotracker^hi CD8+ cells are shown. Data are mean ± SD and acquired via flow cytometry. […] Quantification of TCF1^hi cells among CD8. (FIG. 4N) Quantification of PD1^hi cells among CD8. (FIG. 4O) Quantification of and Tim3^hi cells among CD8. […]

CD3+ cells = test: Western blot, fractionation and immunofluorescence of stimulated CD3+ cells; type: cell-based
Method: as §1

## O=c1oc2cc(O)ccc2c2ccc(O)cc12 [Urolithin A]
APTK tumors; PMA and Ionomycin restimulation
  ex vivo cytokine release of CD8+ TIL: did not exhibit differences
APTK tumors; UA or control diet
  TCF-1 expression in CD8+ TIL: did not exhibit differences
  exhaustion markers in CD8+ TIL: did not exhibit differences
APTK tumors; UA-rich or control diet
  tumor suppressive effect of UA (growth curve): abrogated the tumor suppressive effect of UA
CD3+ cells; 6 h, compared to vehicle controls
  phosphorylation of Stat1: equal phosphorylation of Stat1
CD3+ cells; 24 h
  Parkin protein expression (Western blot): stabilized Parkin protein expression
CD3+ cells; after 6 hours
  b-catenin phosphorylation: marked decrease
CD3+ cells; six hours
  Pgam5 localization (sub-cellular fractionation, immunofluorescence): rapidly released into the cytoplasma
